{"source": "patent US20230053540A1", "about": "“TREATMENT OF LIVER INJURY” (Massachusetts Institute of Technology, priority 2019, published 2023)", "system": "hepatocytes", "test": "Seq-Well scRNA-Seq of hepatocytes after APAP overdose (signature scores, DEG vs untreated)", "format": "in vivo, mouse", "settings": "APAP vs UT", "data": [{"compound": "CC(=O)Nc1ccc(O)cc1", "note": "[APAP, acetaminophen]", "values": [{"measurement": "Apobec1 logFC", "value": 0.3051}, {"measurement": "Apol7a logFC", "value": "−0.4923"}, {"measurement": "App logFC", "value": 0.3618}, {"measurement": "Arcn1 logFC", "value": 0.3278}, {"measurement": "Arl4d logFC", "value": "−0.5072"}, {"measurement": "Asgr1 logFC", "value": "−0.3857"}, {"measurement": "Atox1 logFC", "value": "−0.4462"}, {"measurement": "Atp5e logFC", "value": "−0.6502"}, {"measurement": "Atp5f1 logFC", "value": "−0.5171"}, {"measurement": "Atp5j2 logFC", "value": "−0.5131"}, {"measurement": "Atp5j logFC", "value": "−0.4837"}, {"measurement": "Atp8b1 logFC", "value": 0.3628}, {"measurement": "Atxn1 logFC", "value": 0.3049}, {"measurement": "BC005537 logFC", "value": 0.3543}, {"measurement": "Baz1a logFC", "value": 0.2596}, {"measurement": "Bcl3 logFC", "value": 0.289}, {"measurement": "Blvrb logFC", "value": "−0.5451"}, {"measurement": "Btg1 logFC", "value": 0.458}, {"measurement": "Btg2 logFC", "value": 0.8321}, {"measurement": "C1qa logFC", "value": 0.5148}, {"measurement": "C1qc logFC", "value": 0.5861}, {"measurement": "C8a logFC", "value": 0.3337}, {"measurement": "Calm1 logFC", "value": 0.4131}, {"measurement": "Calu logFC", "value": 0.3041}, {"measurement": "Canx logFC", "value": 0.3434}, {"measurement": "Cat logFC", "value": 0.2626}, {"measurement": "Cd44 logFC", "value": 0.3037}, {"measurement": "Cd53 logFC", "value": 0.2656}, {"measurement": "Cd74 logFC", "value": 0.4539}, {"measurement": "Cd97 logFC", "value": 0.3458}, {"measurement": "Cd302 logFC", "value": "−0.5499"}, {"measurement": "Cebpb logFC", "value": "−0.4716"}, {"measurement": "Ces1e logFC", "value": 0.2656}, {"measurement": "Ces3b logFC", "value": "−0.3664"}, {"measurement": "Cfh logFC", "value": 0.4009}, {"measurement": "Cfhr2 logFC", "value": "−0.4485"}, {"measurement": "Cfi logFC", "value": 0.2516}, {"measurement": "Cfp logFC", "value": 0.3562}, {"measurement": "Chchd2 logFC", "value": "−0.5525"}, {"measurement": "Chic2 logFC", "value": 0.4198}, {"measurement": "Cldn14 logFC", "value": 0.3645}, {"measurement": "Clpx logFC", "value": "−0.4047"}, {"measurement": "Cltc logFC", "value": 0.785}, {"measurement": "Cmah logFC", "value": 0.3616}, {"measurement": "Cmbl logFC", "value": "−0.4427"}, {"measurement": "Cml1 logFC", "value": "−0.6142"}, {"measurement": "Cml2 logFC", "value": "−0.3979"}, {"measurement": "Copa logFC", "value": 0.3451}, {"measurement": "Cox5b logFC", "value": "−0.4988"}, {"measurement": "Cox7a2 logFC", "value": "−0.6503"}, {"measurement": "Cox7b logFC", "value": "−0.6422"}, {"measurement": "Cpb2 logFC", "value": 0.3222}, {"measurement": "Cps1 logFC", "value": 0.3245}, {"measurement": "Crp logFC", "value": "−0.5069"}, {"measurement": "Csde1 logFC", "value": 0.3269}, {"measurement": "Ctsd logFC", "value": 0.2579}, {"measurement": "Ctsl logFC", "value": 0.5301}, {"measurement": "Cxadr logFC", "value": 0.6985}, {"measurement": "Cyb5b logFC", "value": "−0.4233"}, {"measurement": "Cyb5r3 logFC", "value": 0.339}, {"measurement": "Cyp4a12a logFC", "value": "−0.4568"}, {"measurement": "Cytip logFC", "value": 0.2676}, {"measurement": "Dcxr logFC", "value": "−0.4409"}, {"measurement": "Ddt logFC", "value": "−0.5222"}, {"measurement": "Ddx3x logFC", "value": 0.6569}, {"measurement": "Ddx5 logFC", "value": 0.5229}, {"measurement": "Ddx21 logFC", "value": 0.7314}, {"measurement": "Dgkd logFC", "value": 0.3708}, {"measurement": "Dhrs3 logFC", "value": "−0.4676"}, {"measurement": "Dio1 logFC", "value": "−0.5453"}, {"measurement": "Dkc1 logFC", "value": 0.3258}, {"measurement": "Dnajc12 logFC", "value": 0.3221}, {"measurement": "Dot1l logFC", "value": 0.397}, {"measurement": "Dst logFC", "value": 0.511}, {"measurement": "Dstn logFC", "value": 0.3243}, {"measurement": "Dusp6 logFC", "value": 0.5916}, {"measurement": "Dusp16 logFC", "value": 0.4605}, {"measurement": "Eaf1 logFC", "value": 0.5218}, {"measurement": "Ebpl logFC", "value": "−0.4503"}, {"measurement": "Eef1b2 logFC", "value": "−0.3173"}, {"measurement": "Eef2 logFC", "value": 0.5259}, {"measurement": "Efna1 logFC", "value": 0.3361}, {"measurement": "Eif1a logFC", "value": 0.7953}, {"measurement": "Eif4g1 logFC", "value": 0.3749}, {"measurement": "Epas1 logFC", "value": 0.7758}, {"measurement": "Epb4.1 logFC", "value": 0.5628}, {"measurement": "Errfi1 logFC", "value": 0.3937}, {"measurement": "Etf1 logFC", "value": 0.5594}, {"measurement": "Etfb logFC", "value": "−0.3655"}, {"measurement": "Etnk1 logFC", "value": 0.3521}, {"measurement": "F5 logFC", "value": 0.3006}, {"measurement": "Fabp2 logFC", "value": "−0.6156"}, {"measurement": "Fcgr3 logFC", "value": 0.3082}, {"measurement": "Fcna logFC", "value": 0.3774}, {"measurement": "Fdx1 logFC", "value": "−0.6234"}, {"measurement": "Fgl2 logFC", "value": 0.2818}, {"measurement": "Fkbp5 logFC", "value": 0.5161}, {"measurement": "Fndc3b logFC", "value": 0.4096}, {"measurement": "Fos logFC", "value": 0.432}, {"measurement": "Fxyd1 logFC", "value": "−0.4799"}, {"measurement": "Gamt logFC", "value": "−0.5603"}, {"measurement": "Gas5 logFC", "value": "−0.3362"}, {"measurement": "Gchfr logFC", "value": "−0.5548"}, {"measurement": "Gclm logFC", "value": 0.2699}, {"measurement": "Gjb2 logFC", "value": 0.6082}, {"measurement": "Glyat logFC", "value": "−0.6477"}, {"measurement": "Gm4076 logFC", "value": "−0.3255"}, {"measurement": "Gm4952 logFC", "value": "−0.4987"}, {"measurement": "Gm5096 logFC", "value": "−0.3631"}, {"measurement": "Gm23388 logFC", "value": 0.4162}, {"measurement": "Gm24187 logFC", "value": 0.4319}, {"measurement": "Gm26917 logFC", "value": 0.8237}, {"measurement": "Gnl2 logFC", "value": 0.3905}, {"measurement": "Gnl3 logFC", "value": 0.576}, {"measurement": "Gpt2 logFC", "value": 0.5391}, {"measurement": "Gsta2 logFC", "value": 0.2522}, {"measurement": "Gstm3 logFC", "value": "−0.5986"}, {"measurement": "Gstz1 logFC", "value": "−0.4641"}, {"measurement": "Gulo logFC", "value": "−0.8017"}, {"measurement": "H2-Aa logFC", "value": 0.3279}, {"measurement": "H2-Ab1 logFC", "value": 0.461}, {"measurement": "H2-Eb1 logFC", "value": 0.3279}, {"measurement": "H3f3b logFC", "value": 0.7029}, {"measurement": "Haao logFC", "value": "−0.5912"}, {"measurement": "Hacl1 logFC", "value": "−0.7069"}, {"measurement": "Hadha logFC", "value": 0.2509}, {"measurement": "Hal logFC", "value": 0.2801}, {"measurement": "Hao1 logFC", "value": 0.323}, {"measurement": "Hc logFC", "value": 0.3679}, {"measurement": "Heatr1 logFC", "value": 0.406}, {"measurement": "Hebp1 logFC", "value": "−0.6354"}, {"measurement": "Hes6 logFC", "value": "−0.5613"}, {"measurement": "Hibadh logFC", "value": "−0.4994"}, {"measurement": "Hic2 logFC", "value": 0.2898}, {"measurement": "Hif1a logFC", "value": 0.5169}, {"measurement": "Hint2 logFC", "value": "−0.4243"}, {"measurement": "Hook1 logFC", "value": 0.3274}, {"measurement": "Hpd logFC", "value": "−0.5182"}, {"measurement": "Hpgd logFC", "value": "−0.3878"}, {"measurement": "Hpx logFC", "value": "−0.3033"}, {"measurement": "Hs3st3b1 logFC", "value": 0.343}, {"measurement": "Hsd17b2 logFC", "value": "−0.5959"}, {"measurement": "Hspa13 logFC", "value": 0.3548}, {"measurement": "Hspb8 logFC", "value": 0.6339}, {"measurement": "Hspe1 logFC", "value": "−0.4807"}, {"measurement": "Ibtk logFC", "value": 0.3311}, {"measurement": "Ier5 logFC", "value": 0.289}, {"measurement": "Ifitm3 logFC", "value": "−0.4251"}, {"measurement": "Igfbp1 logFC", "value": 1.059}, {"measurement": "Igfbp2 logFC", "value": "−0.3451"}, {"measurement": "Il6st logFC", "value": 0.3335}, {"measurement": "Il13ra1 logFC", "value": 0.303}, {"measurement": "Inmt logFC", "value": "−0.731"}, {"measurement": "Insig1 logFC", "value": 0.4655}, {"measurement": "Ipo7 logFC", "value": 0.3246}, {"measurement": "Itgb2 logFC", "value": 0.2723}, {"measurement": "Itih2 logFC", "value": 0.5011}, {"measurement": "Jak1 logFC", "value": 0.6039}, {"measurement": "Jmjd1c logFC", "value": 0.6366}, {"measurement": "Kctd3 logFC", "value": 0.2608}, {"measurement": "Keg1 logFC", "value": "−0.8245"}, {"measurement": "Klf15 logFC", "value": "−0.4518"}, {"measurement": "Kmo logFC", "value": "−0.3844"}, {"measurement": "Lactb2 logFC", "value": "−0.5965"}, {"measurement": "Laptm5 logFC", "value": 0.3382}, {"measurement": "Lcn2 logFC", "value": 0.4122}, {"measurement": "Leap2 logFC", "value": "−0.6713"}, {"measurement": "Lect2 logFC", "value": "−0.627"}, {"measurement": "Lgmn logFC", "value": 0.4846}, {"measurement": "Lgr4 logFC", "value": 0.269}, {"measurement": "Lman1 logFC", "value": 0.2986}, {"measurement": "Lmo4 logFC", "value": 0.3205}, {"measurement": "Lonp2 logFC", "value": "−0.4674"}, {"measurement": "Lpin1 logFC", "value": 0.2775}, {"measurement": "Lrp1 logFC", "value": 0.5051}, {"measurement": "Lrrc59 logFC", "value": 0.3772}, {"measurement": "Lrrfip1 logFC", "value": 0.4459}, {"measurement": "Lyst logFC", "value": 0.4093}, {"measurement": "Maff logFC", "value": 0.3553}, {"measurement": "Mak16 logFC", "value": 0.3171}, {"measurement": "Malat1 logFC", "value": 0.9206}, {"measurement": "Manf logFC", "value": 0.4689}, {"measurement": "Map2k3 logFC", "value": 0.4347}, {"measurement": "Mbl1 logFC", "value": "−0.713"}, {"measurement": "Mcm10 logFC", "value": "−0.4874"}, {"measurement": "Mdn1 logFC", "value": 0.318}, {"measurement": "Minos1 logFC", "value": "−0.4555"}, {"measurement": "Mlec logFC", "value": 0.3246}, {"measurement": "Mmp14 logFC", "value": 0.2889}, {"measurement": "Mpc1 logFC", "value": "−0.2818"}, {"measurement": "Mpc2 logFC", "value": "−0.4828"}, {"measurement": "Mrpl14 logFC", "value": "−0.459"}, {"measurement": "Msn logFC", "value": 0.2602}, {"measurement": "Msrb1 logFC", "value": "−0.599"}, {"measurement": "Mug2 logFC", "value": 0.3704}, {"measurement": "Mup2 logFC", "value": 1}, {"measurement": "Myo1e logFC", "value": 0.6143}, {"measurement": "Nab1 logFC", "value": 0.3342}, {"measurement": "Ndufa6 logFC", "value": "−0.6136"}, {"measurement": "Ndufa7 logFC", "value": "−0.5559"}, {"measurement": "Ndufa13 logFC", "value": "−0.4388"}, {"measurement": "Ndufb2 logFC", "value": "−0.5772"}]}]}
